Measured values published in PubChem BioAssay AID1963979 (Molecular Pharmacology Branch, DTP, NCI, 2024).

System: 361931-004-R-J1-PDC multicell spheroid viability
Test: Anticancer human tumor 361931-004-R-J1-PDC patient-derived colon adenocarcinoma cell line growth inhibition [PI3K]
Settings: for IC50: curve of first compound; for viability, T/C: stronger effect = lower value; active = viability on the fitted dose curve at most 10% of control; inactive = the rest
Summary of the method: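 Combination activity was assessed by viability in multicellular tumor spheroids carrying HUVEC and MSC components. Agents were tested with PI3K inhibitors from a Cmax-based top dose (or 10 microM) downward in half-log increments.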

[1] = second compound 0.0316 µM, first compound 0.0316 µM
[2] = second compound 0.0316 µM, first compound 0.1 µM
[3] = second compound 0.0316 µM, first compound 0.316 µM
[4] = second compound 0.0316 µM, first compound 1 µM
[5] = second compound 0.0316 µM, first compound 3.16 µM
[6] = second compound 0.0316 µM, first compound 10 µM
[7] = second compound 0.1 µM, first compound 0.0316 µM
[8] = second compound 0.1 µM, first compound 0.1 µM
[9] = second compound 0.1 µM, first compound 0.316 µM
[10] = second compound 0.1 µM, first compound 1 µM
[11] = second compound 0.1 µM, first compound 3.16 µM
[12] = second compound 0.1 µM, first compound 10 µM
[13] = second compound 0.316 µM, first compound 0.0316 µM
[14] = second compound 0.316 µM, first compound 0.1 µM
[15] = second compound 0.316 µM, first compound 0.316 µM
[16] = second compound 0.316 µM, first compound 1 µM
[17] = second compound 0.316 µM, first compound 3.16 µM
[18] = second compound 0.316 µM, first compound 10 µM
[19] = second compound 1 µM, first compound 0.0316 µM
[20] = second compound 1 µM, first compound 0.1 µM
[21] = second compound 1 µM, first compound 0.316 µM
[22] = second compound 1 µM, first compound 1 µM
[23] = second compound 1 µM, first compound 3.16 µM
[24] = second compound 1 µM, first compound 10 µM
[25] = second compound 3.16 µM, first compound 0.0316 µM
[26] = second compound 3.16 µM, first compound 0.1 µM
[27] = second compound 3.16 µM, first compound 0.316 µM
[28] = second compound 3.16 µM, first compound 1 µM
[29] = second compound 3.16 µM, first compound 3.16 µM
[30] = second compound 3.16 µM, first compound 10 µM
[31] = second compound 10 µM, first compound 0.0316 µM
[32] = second compound 10 µM, first compound 0.1 µM
[33] = second compound 10 µM, first compound 0.316 µM
[34] = second compound 10 µM, first compound 1 µM
[35] = second compound 10 µM, first compound 3.16 µM
[36] = second compound 10 µM, first compound 10 µM
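Also: spheroids exposed to agents for seven days before readout.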

CC(C)NCC(C(=O)N1CCN(c2ncnc3c2C(C)CC3O)CC1)c1ccc(Cl)cc1 (centres undefined) + Cc1nc(NC(=O)N2CCCC2C(N)=O)sc1-c1ccnc(C(C)(C)C(F)(F)F)c1
631 nM: IC50 (second compound 10 µM)
1520 nM: IC50 (second compound 0.1 µM)
1380 nM: IC50 (second compound 0.0316 µM)
inactive: viability, T/C [1] 96.2% | viability, T/C [2] 102% | viability, T/C [3] 85.4% | viability, T/C [4] 56.2% | viability, T/C [5] 34.5% | viability, T/C [6] 27% | viability, T/C [7] 97% | viability, T/C [8] 87.4% | viability, T/C [9] 94.3% | viability, T/C [10] 60.2% | viability, T/C [11] 30.7% | viability, T/C [12] 17.6% | viability, T/C [13] 96.8% | viability, T/C [14] 93.9% | viability, T/C [15] 68.5% | viability, T/C [16] 51.5% | viability, T/C [17] 34.2% | viability, T/C [18] 18.1% | viability, T/C [19] 87.9% | viability, T/C [20] 96.7% | viability, T/C [21] 76.8% | viability, T/C [22] 50.6% | viability, T/C [23] 29.6% | viability, T/C [24] 16.7% | viability, T/C [25] 72.3% | viability, T/C [26] 84% | viability, T/C [27] 73.9% | viability, T/C [28] 46.6% | viability, T/C [29] 29.7% | viability, T/C [30] 13.4% | viability, T/C [31] 62.1% | viability, T/C [32] 56.8% | viability, T/C [33] 63.4% | viability, T/C [34] 42.4% | viability, T/C [35] 21.6% | viability, T/C [36] 11.9%
1020 nM: IC50 (second compound 3.16 µM)
1090 nM: IC50 (second compound 0.316 µM)
1080 nM: IC50 (second compound 1 µM)

CC1(C)CCC(CN2CCN(c3ccc(C(=O)NS(=O)(=O)c4ccc(NCC5CCOCC5)c([N+](=O)[O-])c4)c(Oc4cnc5[nH]ccc5c4)c3)CC2)=C(c2ccc(Cl)cc2)C1 + Cc1nc(NC(=O)N2CCCC2C(N)=O)sc1-c1ccnc(C(C)(C)C(F)(F)F)c1
4300 nM: IC50 (second compound 0.1 µM)
2710 nM: IC50 (second compound 3.16 µM)
inactive: viability, T/C [1] 108% | viability, T/C [2] 100% | viability, T/C [3] 111% | viability, T/C [4] 99.7% | viability, T/C [5] 64.9% | viability, T/C [7] 106% | viability, T/C [8] 100% | viability, T/C [9] 108% | viability, T/C [10] 99.1% | viability, T/C [11] 67.8% | viability, T/C [13] 104% | viability, T/C [14] 107% | viability, T/C [15] 96% | viability, T/C [16] 93% | viability, T/C [17] 65.6% | viability, T/C [19] 87.1% | viability, T/C [20] 102% | viability, T/C [21] 84.8% | viability, T/C [22] 83.1% | viability, T/C [23] 61.2% | viability, T/C [25] 85.7% | viability, T/C [26] 77% | viability, T/C [27] 78.2% | viability, T/C [28] 80% | viability, T/C [29] 45.4% | viability, T/C [31] 65.1% | viability, T/C [32] 67.7% | viability, T/C [33] 60.3% | viability, T/C [34] 62.2% | viability, T/C [35] 29%
3890 nM: IC50 (second compound 1 µM)
4140 nM: IC50 (second compound 0.0316 µM)
active: viability, T/C [6] 1.71% | viability, T/C [12] 1.27% | viability, T/C [18] 1.32% | viability, T/C [24] 0.97% | viability, T/C [30] 1.07% | viability, T/C [36] 1.43%
4190 nM: IC50 (second compound 0.316 µM)
1520 nM: IC50 (second compound 10 µM)
